The record followed here is patent publication US12351586B2 (priority 2020, dated 2025).

Broadly, the EC50 is the concentration needed to bring the measured effect to its halfway point.

The subject of one assay is WT HIV-1 strain (IIIB). As to the kind of experiment: Anti-HIV activity in MT-4 cells, MTT method, WT HIV-1 strain (IIIB). The class given is cell-based. From the text: Etravirine (ETR) was selected as control drug.
Pannecouque et al. Nat. Protoc. […] Methods 20(1988) 309-321.
For orientation: Tetrazolium dyes change colour on reduction, which living cells bring about.

For assay [1], the system named is HIV-1 mutant strains (K101E, V108I, F227C, M230I in RT gene). As to the kind of experiment: Activity against mutant strains selected by passaging HIV-1 IIIB 30 times in the presence of DK6-1. The class given is cell-based.
Assay [2] concerns HIV-1 K103N mutant strain. As to the kind of experiment: Anti-HIV activity in MT-4 cells, MTT method, K103N mutant strain. The assay is classed as cell-based. The following applies: Human immunodeficiency virus 1, MT4, read-out: EC50 (anti-HIV activity). From the text:
Pannecouque et al. Nat. Protoc.

In assay [3] the test system is HIV-1 L100I mutant strain. As to the kind of experiment: microbe, parasite or virus in culture. The following applies: Human immunodeficiency virus 1, MT4, read-out: EC50 (anti-HIV activity).
The subject of assay [4] is HIV-1 E138K mutant strain. As to the kind of experiment: microbe, parasite or virus in culture. The settings on record: Human immunodeficiency virus 1, MT4, read-out: EC50 (anti-HIV activity).

Regarding `Cc1cn([C@H]2C[C@H](N=[N+]=[N-])[C@@H](CO)O2)c(=O)[nH]c1=O` [AZT], the EC50 with WT HIV-1 strain (IIIB) (HIV-1 IIIB wild-type) turned out to be 12.7 nM; in assay [1] (mutant strains with K101E, V108I, F227C, M230I) it was 1 nM. Moreover, the “fold potent versus own activity against HIV-1 IIIB” value in assay [1] (selected mutant strains vs HIV-1 IIIB) is listed as “about 10 fold”.
Turning to `Cc1cc(/C=C/C#N)cc(C)c1Oc1nc(NC2CCN(Cc3ccc(S(N)(=O)=O)cc3)CC2)nc2sccc12` [DK6-1], the EC50 with WT HIV-1 strain (IIIB) (Human immunodeficiency virus 1, MT4, HIV-1 IIIB wild-type) is 3.24 nM; in assay [2], 2.34 nM; in assay [3] it was less than 8 nM; in assay [4], less than 8 nM.
